pIC50: −log10 of the molar value.
Each compound was assayed against T1, pY641-STAT6 in PBMC (Homo sapiens, UniProt P42226) (assay: MSD-pSTAT-PBMC Assay (pSTAT6, IL-4 stimulated)). Settings: PBMC, compound 3 hrs, then 1 ng/mL IL-4 for 10 min; Table 115; read-out: STAT6.
T1 construct: Cryopreserved Peripheral Blood Mononuclear Cells (PBMC) are from AllCells; host or cells: cryopreserved PBMC
T1 sequence (P42226 1-847): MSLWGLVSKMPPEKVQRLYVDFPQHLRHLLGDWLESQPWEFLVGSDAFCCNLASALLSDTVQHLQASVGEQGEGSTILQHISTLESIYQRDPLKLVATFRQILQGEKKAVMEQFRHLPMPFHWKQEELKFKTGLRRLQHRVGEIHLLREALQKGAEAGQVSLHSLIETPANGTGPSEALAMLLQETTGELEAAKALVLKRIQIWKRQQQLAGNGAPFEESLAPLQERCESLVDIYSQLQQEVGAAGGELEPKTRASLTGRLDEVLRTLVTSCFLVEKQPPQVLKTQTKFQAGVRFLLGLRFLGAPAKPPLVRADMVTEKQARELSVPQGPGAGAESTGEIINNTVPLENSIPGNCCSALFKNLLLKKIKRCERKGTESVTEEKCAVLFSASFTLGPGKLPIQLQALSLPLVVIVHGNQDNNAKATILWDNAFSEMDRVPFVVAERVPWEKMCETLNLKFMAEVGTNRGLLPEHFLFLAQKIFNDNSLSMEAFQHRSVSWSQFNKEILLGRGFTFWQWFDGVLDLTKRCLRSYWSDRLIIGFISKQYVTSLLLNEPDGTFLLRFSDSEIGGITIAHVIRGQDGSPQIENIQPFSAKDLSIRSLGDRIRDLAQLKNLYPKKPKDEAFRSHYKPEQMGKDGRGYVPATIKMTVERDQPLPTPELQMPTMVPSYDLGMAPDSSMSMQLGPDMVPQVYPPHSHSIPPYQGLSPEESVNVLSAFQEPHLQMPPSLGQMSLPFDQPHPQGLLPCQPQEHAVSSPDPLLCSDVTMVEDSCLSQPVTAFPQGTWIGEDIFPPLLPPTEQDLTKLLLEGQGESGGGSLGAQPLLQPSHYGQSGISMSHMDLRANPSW
Format: cell-based
Method in brief: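 Cells are preincubated with compound for 3 hrs, then stimulated for 10 min, IL-4 at 1 ng/mL driving STAT6 phosphorylation and IL-6 at 10 ng/mL driving STAT3. Phospho-STAT in lysates is quantified by MSD immunoassay, and IC50 is fitted after subtracting unstimulated wells.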

For `CCCOC(=O)[C@H](C)NP(=O)(Cc1ccc2sc(C(=O)N[C@H]3CCCC[C@H]4CC[C@@H](C(=O)N5C[C@@H](C#N)[C@H](c6ccccc6)C5)N4C3=O)cc2c1)Oc1ccccc1` (some centres unmarked) [Compound 444], the pIC50 was 6.00 to 7.00.

Same assay, conditions: STAT6, PBMC, compound 3 hrs, then 1 ng/mL IL-4 for 10 min; Table 115

First: CCCOC(=O)[C@H](C)NP(=O)(Oc1ccccc1)C(F)c1ccc2ccc(C(=O)N[C@H]3CCCC[C@H]4CC[C@@H](C(=O)N5CC(c6cccnc6)CC56CC6)N4C3=O)cc2c1 (stereo partly drawn) [Compound 429, propyl ((fluoro(7-(((3S,6S,10aS)-5-oxo-3-(6-(pyridin-3-yl)-4-azaspiro[2.4]heptane-4-carbonyl)decahydropyrrolo[1,2-a]azocin-6-yl)carbamoyl)naphthalen-2-yl)methyl)(phenoxy)phosphoryl)-L-alaninate]
Second: CCCOC(=O)[C@H](C)NP(=O)(Oc1ccccc1)C(F)c1ccc2ccc(C(=O)N[C@H]3CCC[C@H]4CC[C@@H](C(=O)N5CC(c6cccnc6)CC56CC6)N4C3=O)cc2c1 (stereo partly drawn) [Compound 453, propyl ((fluoro(7-(((3S,6S,9aS)-5-oxo-3-(6-(pyridin-3-yl)-4-azaspiro[2.4]heptane-4-carbonyl)octahydro-1H-pyrrolo[1,2-a]azepin-6-yl)carbamoyl)naphthalen-2-yl)methyl)(phenoxy)phosphoryl)-L-alaninate]
The pIC50 of the first is higher: > 7.00 for the first, 6.00 to 7.00 for the second. The first is the more potent here.

Going from `C[C@H](NP(=O)(Cc1ccc2ccc(C(=O)N[C@H]3CCCC[C@H]4CC[C@@H](C(=O)N5CC(c6ccccc6)CC56CC6)N4C3=O)cc2c1)Oc1ccccc1)C(=O)OCC(C)(C)C` (stereo partly drawn) [Compound 436, neopentyl (((7-(((3S,6S,10aS)-5-oxo-3-(6-phenyl-4-azaspiro[2.4]heptane-4-carbonyl)decahydropyrrolo[1,2-a]azocin-6-yl)carbamoyl)naphthalen-2-yl)methyl)(phenoxy)phosphoryl)-L-alaninate] to `CCCOC(=O)[C@H](C)NP(=O)(Oc1ccccc1)C(F)c1ccc2ccc(C(=O)N[C@H]3CCCC[C@H]4CC[C@@H](C(=O)N5C[C@H](c6ccccc6)[C@@H](C#N)C56CC6)N4C3=O)cc2c1` (stereo partly drawn) [Compound 442, propyl (((7-(((3S,6S,10aS)-3-((6S,7R)-7-cyano-6-phenyl-4-azaspiro[2.4]heptane-4-carbonyl)-5-oxodecahydropyrrolo [1,2-a]azocin-6-yl)carbamoyl)naphthalen-2-yl)fluoromethyl) (phenoxy)phosphoryl)-L-alaninate], the pIC50 rises from < 5.52 to > 7.00. The second is the more potent here.

`CCCOC(=O)[C@H](C)NP(=O)(Oc1ccccc1)C(F)c1ccc2ccc(C(=O)N[C@H]3CCCC[C@H]4CC[C@@H](C(=O)N5CC(c6ccn(C)c(=O)c6)CC56CC6)N4C3=O)cc2c1` (stereo partly drawn) [Compound 440, propyl ((fluoro(7-(((3S,6S,10aS)-3-(6-(1-methyl-2-oxo-1,2-dihydropyridin-4-yl)-4-azaspiro[2.4]heptane-4-carbonyl)-5-oxodecahydropyrrolo [1,2-a]azocin-6-yl)carbamoyl)naphthalen-2-yl)methyl)(phenoxy)phosphoryl)-L-alaninate] and `CCCOC(=O)[C@H](C)NP(=O)(Oc1ccccc1)C(F)c1ccc2ccc(C(=O)N[C@H]3CCCC[C@H]4CC[C@@H](C(=O)N5C[C@@H](c6ccn(C)c(=O)c6)CC56CC6)N4C3=O)cc2c1` (stereo partly drawn) [Compound 441, propyl ((fluoro(7-(((3S,6S,10aS)-3-((R)-6-(1-methyl-2-oxo-1,2-dihydropyridin-4-yl)-4-azaspiro[2.4]heptane-4-carbonyl)-5-oxodecahydropyrrolo [1,2-a]azocin-6-yl)carbamoyl)naphthalen-2-yl)methyl)(phenoxy)phosphoryl)-L-alaninate] cannot be ordered by pIC50: > 7.00 for the first, > 7.00 for the second.

`CCCOC(=O)[C@H](C)NP(=O)(Oc1ccccc1)C(F)c1ccc2ccc(C(=O)N[C@H]3CCCC[C@H]4CC[C@@H](C(=O)N5C[C@H](c6ccn(C)c(=O)c6)CC56CC6)N4C3=O)cc2c1` (stereo partly drawn) [Compound 443, propyl ((fluoro(7-(((3S,6S,10aS)-3-((S)-6-(1-methyl-2-oxo-1,2-dihydropyridin-4-yl)-4-azaspiro[2.4]heptane-4-carbonyl)-5-oxodecahydropyrrolo [1,2-a]azocin-6-yl)carbamoyl)naphthalen-2-yl)methyl)(phenoxy)phosphoryl)-L-alaninate] and `CCCOC(=O)[C@H](C)NP(=O)(Oc1ccccc1)C(F)c1ccc2ccc(C(=O)N[C@H]3CCCC[C@H]4CC[C@@H](C(=O)N5CCC(c6ccn(C)c(=O)c6)C5)N4C3=O)cc2c1` (stereo partly drawn) [Compound 450, propyl ((fluoro(7-(((3S,6S,10aS)-3-(3-(1-methyl-2-oxo-1,2-dihydropyridin-4-yl)pyrrolidine-1-carbonyl)-5-oxodecahydropyrrolo [1,2-a]azocin-6-yl)carbamoyl)naphthalen-2-yl)methyl)(phenoxy)phosphoryl)-L-alaninate] fall in the same range of pIC50: 6.00 to 7.00 for the first, 6.00 to 7.00 for the second.

Compared with `CCCOC(=O)[C@H](C)NP(=O)(Oc1ccccc1)C(F)c1ccc2sc(C(=O)N[C@H]3CCCC[C@H]4CC[C@@H](C(=O)N5CC(c6cccnc6)CC56CC6)N4C3=O)cc2c1` (stereo partly drawn) [Compound 448, propyl ((fluoro(2-(((3S,6S,10aS)-5-oxo-3-(6-(pyridin-3-yl)-4-azaspiro[2.4]heptane-4-carbonyl)decahydropyrrolo[1,2-a]azocin-6-yl)carbamoyl)benzo [b]thiophen-5-yl)methyl)(phenoxy)phosphoryl)-L-alaninate], `CCCOC(=O)[C@H](C)NP(=O)(Oc1ccccc1)C(F)c1ccc2sc(C(=O)N[C@H]3CCCC[C@H]4CC[C@@H](C(=O)N5CC(c6ccn(C)c(=O)c6)CC56CC6)N4C3=O)cc2c1` (stereo partly drawn) [Compound 449, propyl ((fluoro(2-(((3S,6S,10aS)-3-(6-(1-methyl-2-oxo-1,2-dihydropyridin-4-yl)-4-azaspiro[2.4]heptane-4-carbonyl)-5-oxodecahydropyrrolo [1,2-a]azocin-6-yl)carbamoyl)benzo [b]thiophen-5-yl)methyl)(phenoxy)phosphoryl)-L-alaninate] is lower in pIC50: > 7.00 for the first, 6.00 to 7.00 for the second. The first is the more potent here.

First: CCCOC(=O)[C@H](C)NP(=O)(Oc1ccccc1)C(F)c1ccc2ccc(C(=O)N[C@H]3CCCC[C@H]4CC[C@@H](C(=O)N5CCC(F)(c6ccn(C)c(=O)c6)C5)N4C3=O)cc2c1 (stereo partly drawn) [Compound 451, propyl ((fluoro(7-(((3S,6S,10aS)-3-(3-fluoro-3-(1-methyl-2-oxo-1,2-dihydropyridin-4-yl)pyrrolidine-1-carbonyl)-5-oxodecahydropyrrolo [1,2-a]azocin-6-yl)carbamoyl)naphthalen-2-yl)methyl)(phenoxy)phosphoryl)-L-alaninate]
Second: CCCOC(=O)[C@H](C)NP(=O)(Oc1ccccc1)C(F)c1ccc2ccc(C(=O)N[C@H]3CCCC[C@H]4CC[C@@H](C(=O)N5CCC(c6ccn(C7CC7)c(=O)c6)C5)N4C3=O)cc2c1 (stereo partly drawn) [Compound 455, propyl (((7-(((3S,6S,10aS)-3-(3-(1-cyclopropyl-2-oxo-1,2-dihydropyridin-4-yl)pyrrolidine-1-carbonyl)-5-oxodecahydropyrrolo [1,2-a]azocin-6-yl)carbamoyl)naphthalen-2-yl)fluoromethyl) (phenoxy)phosphoryl)-L-alaninate]
The pIC50 of the first is higher: 6.00 to 7.00 for the first, < 5.52 for the second.

For `CCCOC(=O)[C@H](C)NP(=O)(Oc1ccccc1)C(F)c1ccc2sc(C(=O)N[C@H]3CCCC[C@H]4CC[C@@H](C(=O)N5C(=O)N(c6cccnc6)C(=O)C56CC6)N4C3=O)cc2c1` (stereo partly drawn) [Compound 452, propyl (((2-(((3S,6S,10aS)-3-(5,7-dioxo-6-(pyridin-3-yl)-4,6-diazaspiro[2.4]heptane-4-carbonyl)-5-oxodecahydropyrrolo [1,2-a]azocin-6-yl)carbamoyl)benzo [b]thiophen-5-yl)fluoromethyl) (phenoxy)phosphoryl)-L-alaninate], the pIC50 was > 7.00.

Reference: patent US20250215029A1 (Recludix Pharma, Inc., priority 2022, published 2025)
